PMC10258794, “To Fold or Not to Fold: Diastereomeric Optimization of an α-Helical Antimicrobial Peptide” (Journal of Medicinal Chemistry, 2023)
Read-outs that look alike come from different tables or passages of the source. Non-standard residues stand in square brackets, D forms with d. Residues, ends and D or L forms follow the SMILES beside them.

Tests used:
human red blood cells = assay: Hemolysis assay (MHC)
Method: To determine the MHC stock solutions, 8 mg/mL peptide in PBS (pH 7.4) was prepared, and 50 μL was diluted serially by l/2 in 50 μL of PBS (pH 7.4) in a 96-well plate (Costar or Nunc, polystyrene, untreated). […] Plasma was discarded, and the pellet was re-suspended in a 15 mL Falcon tube in 5 mL of PBS. The washing was repeated three times, and the remaining pellet was re-suspended in 10 mL of PBS. The hRBC suspension (50 μL) was added to each well, and the plate was incubated at room temperature for 4 h. MHC end points were determined by visual determination of the wells after the incubation period. Controls on each plate included a blank medium control (50 μL PBS + 50 μL of hRBCs suspension) and a hemolytic activity control (mQ-deionized water 50 μL + 50 μL hRBC suspension).

[1] = EYPG vesicle leakage assay; format: biochemical; conditions: 10 μg/mL of compound; 10 mM TRIS, 107 mM NaCl, pH 7.4
Method: 5(6)-carboxyfluorescein (CF) was purchased from Sigma. EYPC, EYPG, and a Mini-Extruder were purchased from Avanti Polar Lipids. Egg PC or Egg PG thin lipid layers were prepared by evaporating a solution of 100 mg of EYPC or EYPG in 4 mL of MeOH/CHCl3 (1:1) on a rotary evaporator at room temperature and then dried in vacuo overnight. […] Extravesicular components were removed by gel filtration (Sephadex G-50) with 10 mM TRIS, 107 mM NaCl, pH 7.4 buffer. Final conditions: ∼2.5 mM PC or PG; inside: 50 mM CF, 10 mM TRIS, 10 mM NaCl, pH 7.4 buffer; outside: 10 mM TRIS, 107 mM NaCl, pH 7.4. […] The CF efflux was monitored at λem 517 nm (λex 492 nm) as a function of time after addition of the desired volume of peptide from 2 mg/mL stock in mQ water at t = 45 s, 10 and 50 μg/mL were monitored for both EYPC and EYPG. […] Fluorescence intensities were then normalized to the maximal emission intensity using I(t) = (It – I0)/(I∞ – I0) where I0 = It at peptide addition, I∞ = It at saturation of lysis.

[2] = EYPC vesicle leakage assay; format: biochemical; conditions: 10 μg/mL of compound; 10 mM TRIS, 107 mM NaCl, pH 7.4
How it was run: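 Egg PC or egg PG vesicles (~2.5 mM lipid) were loaded with 50 mM CF in 10 mM TRIS pH 7.4, with 10 mM TRIS/107 mM NaCl outside. Peptide at 10 or 50 μg/mL was added at 45 s, and CF efflux was followed at λex 492/λem 517 nm, normalized to complete lysis.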

[3] = CD spectroscopy, α-helix content; format: physicochemical; conditions: 5 mM DPC in 7 mM PB buffer pH 7.4, Dichroweb Contin LL set 4
Method: CD experiments were measured on a Jasco J-715 spectropolarimeter. All the experiments were performed using Hellma Suprasil 110-QS 0.1 cm cuvettes. For each peptide, the measurements were performed in phosphate buffer (PB, pH = 7.4, 7 mM), 10% TFE, 20% TFE, 5 mM DPC. The buffer was degassed for 10 min under high vacuum before each set of experiments. The concentration of the peptides was 0.100 mg/mL, and each sample was measured in one accumulation. The scan rate was 20 nm/min, pitch was 0.5 nm, response was 16 s, and bandwidth was 1.0 nm. The nitrogen flow was kept >8 L/min. After each measurement, the cuvettes were washed successively with milli-Q H2O and PB (pH 7.4). The baseline was recorded under the same conditions and subtracted manually. Primary CD spectra were analyzed using DichroWeb[58] and Contin-LL method (set 4).[74]

A. baumannii ATCC19606 = system: A. baumannii ATCC19606
How it was run: (§1)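 Compounds were 2-fold serially diluted from a 2 mg/mL stock and plates were incubated statically for 16–20 h at 37 °C. MIC is the lowest concentration preventing visible growth, read after MTT staining.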

E. coli W3110 = system: E. coli W3110
How it was run: as §1

K. pneumoniae NCTC418 = system: K. pneumoniae NCTC418
How it was run: as §1

P. aeruginosa PAO1 = system: P. aeruginosa PAO1
How it was run: as §1

[4] = system: Pseudomonas aeruginosa, Klebsiella pneumoniae, Acinetobacter baumannii, Escherichia coli, and methicillin-resistant Staphylococcus aureus; conditions: summary of Table 1
How it was run: as §1

S. aureus COL MRSA = conditions: for MIC S. aureus COL MRSA: MH broth pH 7.4, 16–20 h, 37 °C
How it was run: as §1

[5] = MH broth pH 7.4, 16–20 h, 37 °C

Row | Compound | MHC (human red blood cells) | MHC (human red blood cells; pH 7.4) | EYPG vesicle leakage (%) [1] | EYPC vesicle leakage (%) [2] | α-helix content (%) [3] | MIC A. baumannii ATCC19606 (A. baumannii ATCC19606; ATCC19606) | MIC A. baumannii ATCC19606 (A. baumannii ATCC19606; [5]) | MIC E. coli W3110 (E. coli W3110; [5]) | MIC E. coli W3110 (E. coli W3110; supplementary CSV, ranges of Table 1 given as one number) | MIC K. pneumoniae NCTC418 (K. pneumoniae NCTC418; [5]) | MIC P. aeruginosa PAO1 (P. aeruginosa PAO1; [5]) | MIC P. aeruginosa PAO1 (P. aeruginosa PAO1; PAO1) | MIC, span over the five bacterial strains [4] | MIC S. aureus COL (S. aureus COL MRSA; COL) | MIC S. aureus COL MRSA (S. aureus COL MRSA) | MIC K. pneumoniae NCTC418 (K. pneumoniae NCTC418; NCTC418)
1 | CC(C)C[C@H](NC(=O)[C@H](CC(C)C)NC(=O)[C@H](CC(C)C)NC(=O)[C@@H](CCCCN)NC(=O)[C@H](CC(C)C)NC(=O)[C@H](CC(C)C)NC(=O)[C@@H](CCCCN)NC(=O)[C@H](CC(C)C)NC(=O)[C@H](CC(C)C)NC(=O)[C@@H](CCCCN)NC(=O)[C@@H](CCCCN)NC(=O)[C@H](CC(C)C)NC(=O)[C@H](CC(C)C)NC(=O)[C@H](CC(C)C)NC(=O)[C@@H](CCCCN)NC(=O)[C@H](CC(C)C)NC(=O)[C@H](CC(C)C)NC(=O)[C@@H](CCCCN)NC(=O)[C@H](CC(C)C)NC(=O)[C@H](CC(C)C)NC(=O)[C@@H](CCCCN)NC(=O)[C@H](N)CCCCN)C(N)=O [2ln69, (kkLLkLLkLLL)2] (H-[dK][dK]LL[dK]LL[dK]LLL[dK][dK]LL[dK]LL[dK]LLL-NH2) | < 15.6 µg/mL | <15.6 µg/mL | 71% | 74% | 82% | >64 µg/mL | >64 µg/mL | >64 µg/mL | >64 µg/mL | >64 µg/mL | >64 µg/mL | >64 µg/mL | entirely inactive | >64 µg/mL | >64 µg/mL | –
2 | H-KKLLKLLKLLLKKLLKLLKLLL-NH2 [2ln65] | < 15.6 µg/mL | <15.6 µg/mL | 73% | 40% | 91% | – | >64 µg/mL | >64 µg/mL | – | >64 µg/mL | >64 µg/mL | – | entirely inactive | – | >64 µg/mL | >64 µg/mL
